biological target: T1, human glycolate oxidase (hGO) (Homo sapiens, UniProt Q9UJM8); experiment: In vitro inhibition of human glycolate oxidase (enzymatic assay, HRP-coupled Trinder reaction); type: biochemical; conditions: not given;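 as to % Inhibition: values are IC50 potency bins despite the % Inhibition label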
T1 construct: His-tag (6 histidines, pET-15b) (N); made in house; host or cells: E. coli BL21 (DE3)
T1 sequence (Q9UJM8 1-370): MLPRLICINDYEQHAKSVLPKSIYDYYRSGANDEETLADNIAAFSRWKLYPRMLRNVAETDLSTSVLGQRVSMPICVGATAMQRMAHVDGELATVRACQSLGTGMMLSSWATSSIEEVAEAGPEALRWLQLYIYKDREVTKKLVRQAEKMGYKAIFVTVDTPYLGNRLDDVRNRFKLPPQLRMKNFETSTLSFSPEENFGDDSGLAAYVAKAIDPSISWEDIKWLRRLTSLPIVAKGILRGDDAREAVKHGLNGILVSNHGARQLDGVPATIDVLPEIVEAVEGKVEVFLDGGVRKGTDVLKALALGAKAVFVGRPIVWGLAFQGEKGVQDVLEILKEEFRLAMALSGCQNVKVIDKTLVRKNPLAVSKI
From the text: The catalytic reactions used for assaying glycolate oxidase activity in the presence of compounds according to the present disclosure are outlined in FIG. 2. Glycolate oxidase (GO)-catalyzed conversion of glycolate to glyoxylate (top reaction), with the concomitant reduction of the cofactor flavin mononucleotide (FMN), uses molecular oxygen (O2) for recovering its oxidative state, releasing hydrogen peroxide (H2O2). The Trinder reaction (bottom reaction), in which horseradish peroxidase (HRP) uses hydrogen peroxide, 4-aminoantipyrine and a phenol derivative (sulphonated DCIP) to generate a quinoneimine dye that is spectrophotometrically measured.
Human glycolate oxidase (hGO) expression. BL21 (DE3) E. coli transformed with recombinant pET-15b expression vector with the N-terminal His-tag human Hao1 cDNA was grown in LB medium in the presence of 0.1 mg/ml ampicillin. For purification of recombinant human glycolate oxidase (hGO) expressed in BL21 E. coli, bacteria pellets were thawed and re-suspended in 2 ml lysis buffer (50 mM NaH2PO4, 300 mM NaCl, 10 mM imidazole, 50 μM FMN, pH 7.5), and then treated for 30 minutes with 1 mM PMSF for protease inhibition, 0.1% Triton X-100 and 0.2 mg/ml lysozyme to break cellular membranes. After sonication, cells were centrifuged and the supernatant containing the total cellular extract (pre-column fraction) was loaded into a Ni-NTA agarose column and incubated for 30 minutes at 4° C. to allow binding of the 6 histidine tail of recombinant GO protein to the nickel ions. The column was washed with two bed volumes of lysis buffer with 20 mM imidazole to eliminate unbound proteins (wash fraction). GO was eluted using the same buffer with 300 mM imidazole. Fraction containing purified GO was dialyzed against 300 ml of dialysis buffer (50 mM NaH2PO4, 300 mM NaCl, pH 7.5) at 4° C. in agitation overnight, and then kept at 4° C. in darkness. Protein were quantified by the bicinchoninic acid (BCA) assay.
Enzymatic assays. Enzymatic activity of hGO was determined in the presence of glycolate as substrate (40 mM glycolic acid) and phosphate buffer (50 mM KPO4, 0.1 mM EDTA, pH 7). The production of glyoxylate was indirectly measured by the quantification of hydrogen peroxide formed during the first oxidation reaction. […] Enzymatic activity was calculated at 1 minute after initiation of the Trinder reaction.

First: O=C(O)c1nn[nH]c1Oc1ccc(C2CCCC2)cc1 [Example 69, 5-(4-cyclopentylphenoxy)-1H-1,2,3-triazole-4-carboxylic Acid]
Second: Cc1cc(Oc2[nH]nnc2C(=O)O)ccc1Br [Example 71, 5-(4-bromo-3-methylphenoxy)-1H-1,2,3-triazole-4-carboxylic Acid]
The IC50 of the first is higher: 100 to 200 nM for the first, less than 100 nM for the second.

same assay, conditions: recombinant hGO, 40 mM glycolic acid, pH 7, read at 515 nm, 1 minute after initiation of Trinder reaction; read-out: % Inhibition

First: N#Cc1ccc(-c2cccc(Oc3[nH]nnc3C(=O)O)c2)cc1 [Example 64, 5-((4′-cyano-[1,1′-biphenyl]-3-yl)oxy)-1H-1,2,3-triazole-4-carboxylic Acid]
Second: Cc1cc(-c2ccc(Oc3[nH]nnc3C(=O)O)cc2)ccn1 [Example 81, 5-(4-(2-methylpyridin-4-yl)phenoxy)-1H-1,2,3-triazole-4-carboxylic Acid]
The IC50 of the first is higher: 100 to 200 nM for the first, less than 100 nM for the second. The second is the more potent here.

Going from CN1CCN(c2ccc(Oc3[nH]nnc3C(=O)O)cc2)CC1 [Example 65, 5-(4-(4-methylpiperazin-1-yl)phenoxy)-1H-1,2,3-triazole-4-carboxylic Acid] to O=C(O)c1nn[nH]c1Oc1ccc(C23CC(C2)C3)cc1 [Example 76, 5-(4-(3-bicyclo[1.1.1]pentan-1-yl)phenoxy)-1H-1,2,3-triazole-4-carboxylic Acid], the IC50 falls from greater than 200 nM to less than 100 nM.

O=C(O)c1nn[nH]c1Oc1cccnc1Br [Example 66, 5-((2-bromopyridin-3-yl)oxy)-1H-1,2,3-triazole-4-carboxylic Acid] and Cc1ccc(Oc2[nH]nnc2C(=O)O)c(C)n1 [Example 67, 5-((2,6-dimethylpyridin-3-yl)oxy)-1H-1,2,3-triazole-4-carboxylic Acid] cannot be ordered by IC50: greater than 200 nM for the first, greater than 200 nM for the second.

CC(C)(C)c1ccc(Oc2[nH]nnc2C(=O)O)cc1 [Example 68, 5-(4-(tert-butyl)phenoxy)-1H-1,2,3-triazole-4-carboxylic Acid] and COc1ccc(Oc2[nH]nnc2C(=O)O)cn1 [Example 70, 5-((6-methoxypyridin-3-yl)oxy)-1H-1,2,3-triazole-4-carboxylic Acid] cannot be ordered by IC50: greater than 200 nM for the first, greater than 200 nM for the second.

Cc1cc(Oc2[nH]nnc2C(=O)O)ccc1-c1cccnc1F [Example 72, 5-(4-(2-fluoropyridin-3-yl)-3-methylphenoxy)-1H-1,2,3-triazole-4-carboxylic Acid] and Cc1ccc(-c2ccc(Oc3[nH]nnc3C(=O)O)cc2C)c(F)n1 [Example 78, 5-(4-(2-fluoro-6-methylpyridin-3-yl)-3-methylphenoxy)-1H-1,2,3-triazole-4-carboxylic Acid] cannot be ordered by IC50: less than 100 nM for the first, less than 100 nM for the second.

Cc1nc(F)ccc1-c1ccc(Oc2[nH]nnc2C(=O)O)cc1 [Example 73, 5-(4-(6-fluoro-2-methylpyridin-3-yl)phenoxy)-1H-1,2,3-triazole-4-carboxylic Acid] and Cc1ccc(-c2ccc(Oc3[nH]nnc3C(=O)O)cc2)c(F)n1 [Example 79, 5-(4-(2-fluoro-6-methylpyridin-3-yl)phenoxy)-1H-1,2,3-triazole-4-carboxylic Acid] cannot be ordered by IC50: less than 100 nM for the first, less than 100 nM for the second.

Cc1cc(F)nc(-c2ccc(Oc3[nH]nnc3C(=O)O)cc2)c1 [Example 74, 5-(4-(6-fluoro-4-methylpyridin-2-yl)phenoxy)-1H-1,2,3-triazole-4-carboxylic Acid] and Cc1cc(-c2ccc(Oc3[nH]nnc3C(=O)O)cc2)cnc1F [Example 82, 5-(4-(6-fluoro-5-methylpyridin-3-yl)phenoxy)-1H-1,2,3-triazole-4-carboxylic Acid] cannot be ordered by IC50: less than 100 nM for the first, less than 100 nM for the second.

Cc1c(-c2ccc(Oc3[nH]nnc3C(=O)O)cc2)ccnc1F [Example 75, 5-(4-(2-fluoro-3-methylpyridin-4-yl)phenoxy)-1H-1,2,3-triazole-4-carboxylic Acid] and O=C(O)c1nn[nH]c1Oc1ccc(-c2ccnc(F)c2)cc1 [Example 92, 5-(4-(2-fluoropyridin-4-yl)phenoxy)-1H-1,2,3-triazole-4-carboxylic Acid] cannot be ordered by IC50: less than 100 nM for the first, less than 100 nM for the second.

O=C1CCC(c2ccc(Oc3[nH]nnc3C(=O)O)cc2)CC1 [Example 77, 5-(4-(4-oxocyclohexyl)phenoxy)-1H-1,2,3-triazole-4-carboxylic Acid] and O=C(O)c1nn[nH]c1Oc1ccc(C2CCSCC2)cc1 [Example 97, 5-(4-(tetrahydro-2H-thiopyran-4-yl)phenoxy)-1H-1,2,3-triazole-4-carboxylic Acid] fall in the same range of IC50: 100 to 200 nM for the first, 100 to 200 nM for the second.

First: Cc1cncc(-c2ccc(Oc3[nH]nnc3C(=O)O)cc2)c1 [Example 80, 5-(4-(5-methylpyridin-3-yl)phenoxy)-1H-1,2,3-triazole-4-carboxylic Acid]
Second: Cc1ccc(-c2ccc(Oc3[nH]nnc3C(=O)O)cc2)cn1 [Example 84, 5-(4-(6-methylpyridin-3-yl)phenoxy)-1H-1,2,3-triazole-4-carboxylic Acid]
The IC50 of the first is lower: less than 100 nM for the first, 100 to 200 nM for the second.

O=C(O)c1nn[nH]c1Oc1ccc(-c2ccnc3ccccc23)cc1 [Example 83, 5-(4-(quinolin-4-yl)phenoxy)-1H-1,2,3-triazole-4-carboxylic Acid] and O=C(O)c1nn[nH]c1Oc1ccc(-c2cccc3ccccc23)cc1 [Example 94, 5-(4-(1-naphthyl)phenoxy)-1H-1,2,3-triazole-4-carboxylic Acid] cannot be ordered by IC50: less than 100 nM for the first, less than 100 nM for the second.

Cc1cc(Oc2[nH]nnc2C(=O)O)ccc1-c1ccc(F)nc1C [Example 85, 5-(4-(6-fluoro-2-methylpyridin-3-yl)-3-methylphenoxy)-1H-1,2,3-triazole-4-carboxylic Acid] and Cc1cc(Oc2[nH]nnc2C(=O)O)ccc1-c1cnc(F)c(C)c1 [Example 86, 5-(4-(6-fluoro-5-methylpyridin-3-yl)-3-methylphenoxy)-1H-1,2,3-triazole-4-carboxylic Acid] fall in the same range of IC50: 100 to 200 nM for the first, 100 to 200 nM for the second.

First: O=C(O)c1[nH]nnc1Oc1ccc(C2CCC(F)(F)CC2)cc1 [Example 87, 5-(4-(4,4-difluorocyclohexyl)phenoxy)-1H-1,2,3-triazole-4-carboxylic Acid]
Second: O=C(O)c1nn[nH]c1Oc1ccc(-c2cc(F)cnc2Cl)cc1 [Example 99, 5-(4-(2-chloro-5-fluoropyridin-3-yl)phenoxy)-1H-1,2,3-triazole-4-carboxylic Acid]
The IC50 of the first is higher: 100 to 200 nM for the first, less than 100 nM for the second.

Going from COc1cc(Oc2[nH]nnc2C(=O)O)ccc1Br [Example 89, 5-(4-bromo-3-methoxyphenoxy)-1H-1,2,3-triazole-4-carboxylic Acid] to O=C(O)c1nn[nH]c1Oc1ccc(Br)c(C(F)(F)F)c1 [Example 95, 5-(4-bromo-3-(trifluoromethyl)phenoxy)-1H-1,2,3-triazole-4-carboxylic Acid], the IC50 rises from less than 100 nM to greater than 200 nM. The first is the more potent here.

COc1ccc(-c2ccc(Oc3[nH]nnc3C(=O)O)cc2OC)cn1 [Example 90, 5-(3-methoxy-4-(6-methoxypyridin-3-yl)phenoxy)-1H-1,2,3-triazole-4-carboxylic Acid] and COc1ccc(-c2ccc(Oc3[nH]nnc3C(=O)O)cc2OC)c(OC)n1 [Example 91, 5-(4-(2,6-dimethoxypyridin-3-yl)-3-methoxyphenoxy)-1H-1,2,3-triazole-4-carboxylic Acid] cannot be ordered by IC50: less than 100 nM for the first, less than 100 nM for the second.

O=C(O)c1nn[nH]c1Oc1ccc(-c2cccnc2Cl)cc1 [Example 93, 5-(4-(2-chloropyridin-3-yl)phenoxy)-1H-1,2,3-triazole-4-carboxylic Acid] and COc1ccc(-c2ccc(Oc3[nH]nnc3C(=O)O)cc2)cn1 [Example 100, 5-(4-(6-methoxypyridin-3-yl)phenoxy)-1H-1,2,3-triazole-4-carboxylic Acid] cannot be ordered by IC50: less than 100 nM for the first, less than 100 nM for the second.

Compared with O=C(O)c1nn[nH]c1Oc1ccc(-c2cncc3ccccc23)cc1 [Example 96, 5-(4-(isoquinolin-4-yl)phenoxy)-1H-1,2,3-triazole-4-carboxylic Acid], COc1ccc(-c2ccc(Oc3[nH]nnc3C(=O)O)cc2)c(OC)n1 [Example 101, 5-(4-(2,6-dimethoxypyridin-3-yl)phenoxy)-1H-1,2,3-triazole-4-carboxylic Acid] is lower in IC50: 100 to 200 nM for the first, less than 100 nM for the second. The second is the more potent here.

O=C(O)c1nn[nH]c1Oc1ccc(-c2cccnc2F)cc1F [Example 98, 5-(2-fluoro-4-(2-fluoropyridin-3-yl)phenoxy)-1H-1,2,3-triazole-4-carboxylic Acid] showed an IC50 of less than 100 nM.

From patent US11401246B2, “Triazole glycolate oxidase inhibitors” (CANTERO THERAPEUTICS, INC., priority 2018, dated 2022)
